From patent publication US5438060A, “Method of reducing elevated intraocular pressure” (priority 1994, dated 1995)
Where a name gives a salt, the structure may show the parent alone. Read-outs that look alike come from different tables or passages of the source.

Experiments:
intraocular pressure = experiment: Experiment 1: ocular hypotensive effect of eye drops in rabbits (applanation pneumatonograph); assay type: in vivo, Male Japanese White rabbits; details: for Difference in IOP between the control and test eyes: 50 μl
Description: The ocular hypotensive effect of the eye drops of this invention was investigated in rabbits. The same experiment was also conducted using a representative β-adrenergic blocking agent, and its ocular hypotensive effect was compared with that of eye drops of this invention. Methods: […] […] Male Japanese White rabbits (body weight: ca. 2 kg) with normal intraocular pressure were used in the experiment. […] For each solution, five rabbits were used. After anesthesia of the corneal surface by instillating 5 μl of 0.4%. oxybuprocaine hydrochloride, the intraocular pressure was measured using an applanation pneumatonograph (Alcon) before and after the instillation of the test solution and control solution. Measurement of intraocular pressure after the instillation was conducted with one-hour intervals until six hours post-instillation.

rabbit eyes = experiment: Experiment 2: eye irritation test (modified Draize test); assay type: in vivo, Male Japanese White rabbits
[1] = mice, cited from earlier work
[2] = 0.5% eye drops, before instillation

Which results are given for `OCCN(CCO)c1nc(N2CCCCC2)c2nc(N(CCO)CCO)nc(N3CCCCC3)c2n1` [Compound (1), dipyridamole]?
Difference in IOP between the control and test eyes (intraocular pressure; 0.00005% (free base), 1 hr): -0.60 mmHg; Difference in IOP between the control and test eyes (intraocular pressure; 0.00005% (free base), 2 hr): -0.50 mmHg; Difference in IOP between the control and test eyes (intraocular pressure; 0.00005% (free base), 4 hr): -0.20 mmHg; Difference in IOP between the control and test eyes (intraocular pressure; 0.00005% (free base), 6 hr): -0.10 mmHg; time of maximal IOP reduction after instillation (intraocular pressure; 0.00005% eye drops): one; Difference in IOP between the control and test eyes (intraocular pressure; 0.0001% (free base), 1 hr): -1.30 mmHg; Difference in IOP between the control and test eyes (intraocular pressure; 0.0001% (free base), 2 hr): -0.95 mmHg; Difference in IOP between the control and test eyes (intraocular pressure; 0.0001% (free base), 4 hr): -0.30 mmHg; Difference in IOP between the control and test eyes (intraocular pressure; 0.0001% (free base), 6 hr): -0.20 mmHg; time of maximal IOP reduction after instillation (intraocular pressure; 0.0001% eye drops): one; ocular hypotensive effect remained unchanged after instillation (intraocular pressure; 0.0005% eye drops): 2.0 h; Difference in IOP between the control and test eyes (intraocular pressure; 0.001% (free base), 1 hr): -2.00 mmHg; Difference in IOP between the control and test eyes (intraocular pressure; 0.001% (free base), 2 hr): -1.56 mmHg; Difference in IOP between the control and test eyes (intraocular pressure; 0.001% (free base), 4 hr): -1.00 mmHg; Difference in IOP between the control and test eyes (intraocular pressure; 0.001% (free base), 6 hr): -0.75 mmHg; time of maximal IOP reduction after instillation (intraocular pressure; 0.001% eye drops): one; Difference in IOP between the control and test eyes (intraocular pressure; 0.01% (free base), 1 hr): -3.44 mmHg; Difference in IOP between the control and test eyes (intraocular pressure; 0.01% (free base), 2 hr): -2.25 mmHg; Difference in IOP between the control and test eyes (intraocular pressure; 0.01% (free base), 4 hr): -1.31 mmHg; Difference in IOP between the control and test eyes (intraocular pressure; 0.01% (free base), 6 hr): -1.00 mmHg; ocular hypotensive effect remained unchanged after instillation (intraocular pressure; 0.01% eye drops): six; time of maximal IOP reduction after instillation (intraocular pressure; 0.01% eye drops): one; Difference in IOP between the control and test eyes (intraocular pressure; 0.1% (free base), 1 hr): -4.50 mmHg; Difference in IOP between the control and test eyes (intraocular pressure; 0.1% (free base), 2 hr): -3.05 mmHg; Difference in IOP between the control and test eyes (intraocular pressure; 0.1% (free base), 4 hr): -2.40 mmHg; Difference in IOP between the control and test eyes (intraocular pressure; 0.1% (free base), 6 hr): -1.00 mmHg; average difference of the IOP from the control eye drops (intraocular pressure; 0.1% eye drops): 4.5 mmHg; ocular hypotensive effect retained after instillation (intraocular pressure; 0.1% eye drops): six; time of maximal IOP reduction after instillation (intraocular pressure; 0.1% eye drops): one; Difference in IOP between the control and test eyes (intraocular pressure; 0.5% (free base), 1 hr): -3.94 mmHg; Difference in IOP between the control and test eyes (intraocular pressure; 0.5% (free base), 2 hr): -4.40 mmHg; Difference in IOP between the control and test eyes (intraocular pressure; 0.5% (free base), 4 hr): -3.10 mmHg; Difference in IOP between the control and test eyes (intraocular pressure; 0.5% (free base), 6 hr): -1.60 mmHg; ocular hypotensive effect remained unchanged after instillation (intraocular pressure; 0.5% eye drops): six; time of maximal IOP reduction after instillation (intraocular pressure; 0.5% eye drops): two; score for the tunica conjunctiva bulbi versus control solution (rabbit eyes; 0.5% eye drops): slightly higher than that for the control solution; Conjunctivae: Chemosis (average score) (rabbit eyes; 0.5% eye drops, 0.5 hours): 0; Conjunctivae: Condition of haw (average score) (rabbit eyes; 0.5% eye drops, 0.5 hours): 0.6; Conjunctivae: Discharge (average score) (rabbit eyes; 0.5% eye drops, 0.5 hours): 0; Conjunctivae: Redness of tunica conjunctivae bulbi (average score) (rabbit eyes; 0.5% eye drops, 0.5 hours): 0.9; Conjunctivae: Redness of tunica conjunctivae palpebrarum (average score) (rabbit eyes; 0.5% eye drops, 0.5 hours): 1.5; Cornea: Area of cornea involved (average score) (rabbit eyes; 0.5% eye drops, 0.5 hours): 0; Cornea: Opacity degree of density (average score) (rabbit eyes; 0.5% eye drops, 0.5 hours): 0; Iris: values (average score) (rabbit eyes; 0.5% eye drops, 0.5 hours): 0.5; congestion in the iris (rabbit eyes; 0.5% eye drops, 0.5 hours after instillation): slight congestion; Conjunctivae: Chemosis (average score) (rabbit eyes; 0.5% eye drops, 1 hour): 0; Conjunctivae: Condition of haw (average score) (rabbit eyes; 0.5% eye drops, 1 hour): 0.5; Conjunctivae: Discharge (average score) (rabbit eyes; 0.5% eye drops, 1 hour): 0; Conjunctivae: Redness of tunica conjunctivae bulbi (average score) (rabbit eyes; 0.5% eye drops, 1 hour): 1.1; Conjunctivae: Redness of tunica conjunctivae palpebrarum (average score) (rabbit eyes; 0.5% eye drops, 1 hour): 1.8; Cornea: Area of cornea involved (average score) (rabbit eyes; 0.5% eye drops, 1 hour): 0; Cornea: Opacity degree of density (average score) (rabbit eyes; 0.5% eye drops, 1 hour): 0; Iris: values (average score) (rabbit eyes; 0.5% eye drops, 1 hour): 1.0; Conjunctivae: Chemosis (average score) (rabbit eyes; 0.5% eye drops, 2 hours): 0; Conjunctivae: Condition of haw (average score) (rabbit eyes; 0.5% eye drops, 2 hours): 0.5; Conjunctivae: Discharge (average score) (rabbit eyes; 0.5% eye drops, 2 hours): 0; Conjunctivae: Redness of tunica conjunctivae bulbi (average score) (rabbit eyes; 0.5% eye drops, 2 hours): 0.9; Conjunctivae: Redness of tunica conjunctivae palpebrarum (average score) (rabbit eyes; 0.5% eye drops, 2 hours): 1.8; Cornea: Area of cornea involved (average score) (rabbit eyes; 0.5% eye drops, 2 hours): 0; Cornea: Opacity degree of density (average score) (rabbit eyes; 0.5% eye drops, 2 hours): 0; Iris: values (average score) (rabbit eyes; 0.5% eye drops, 2 hours): 0.8; Conjunctivae: Chemosis (average score) (rabbit eyes; 0.5% eye drops, 3 hours): 0; Conjunctivae: Condition of haw (average score) (rabbit eyes; 0.5% eye drops, 3 hours): 0.5; Conjunctivae: Discharge (average score) (rabbit eyes; 0.5% eye drops, 3 hours): 0; Conjunctivae: Redness of tunica conjunctivae bulbi (average score) (rabbit eyes; 0.5% eye drops, 3 hours): 0.5; Conjunctivae: Redness of tunica conjunctivae palpebrarum (average score) (rabbit eyes; 0.5% eye drops, 3 hours): 1.3; Cornea: Area of cornea involved (average score) (rabbit eyes; 0.5% eye drops, 3 hours): 0; Cornea: Opacity degree of density (average score) (rabbit eyes; 0.5% eye drops, 3 hours): 0; Iris: values (average score) (rabbit eyes; 0.5% eye drops, 3 hours): 0.5; Conjunctivae: Chemosis (average score) (rabbit eyes; 0.5% eye drops, 6 hours): 0; Conjunctivae: Condition of haw (average score) (rabbit eyes; 0.5% eye drops, 6 hours): 0.5; Conjunctivae: Discharge (average score) (rabbit eyes; 0.5% eye drops, 6 hours): 0; Conjunctivae: Redness of tunica conjunctivae bulbi (average score) (rabbit eyes; 0.5% eye drops, 6 hours): 0.1; Conjunctivae: Redness of tunica conjunctivae palpebrarum (average score) (rabbit eyes; 0.5% eye drops, 6 hours): 0.8; Cornea: Area of cornea involved (average score) (rabbit eyes; 0.5% eye drops, 6 hours): 0; Cornea: Opacity degree of density (average score) (rabbit eyes; 0.5% eye drops, 6 hours): 0; Iris: values (average score) (rabbit eyes; 0.5% eye drops, 6 hours): 0; congestion in the iris (rabbit eyes; 0.5% eye drops, after 6 hours): disappeared; Conjunctivae: Chemosis (average score) (rabbit eyes; [2]): 0; Conjunctivae: Condition of haw (average score) (rabbit eyes; [2]): 0.4; Conjunctivae: Discharge (average score) (rabbit eyes; [2]): 0; Conjunctivae: Redness of tunica conjunctivae bulbi (average score) (rabbit eyes; [2]): 0.1; Conjunctivae: Redness of tunica conjunctivae palpebrarum (average score) (rabbit eyes; [2]): 0.8; Cornea: Area of cornea involved (average score) (rabbit eyes; [2]): 0; Cornea: Opacity degree of density (average score) (rabbit eyes; [2]): 0; Iris: values (average score) (rabbit eyes; [2]): 0; other irritation items, test solution versus control solution (rabbit eyes; 0.5% eye drops, irrespective of time): no difference; irritation to rabbit eyes (overall) (rabbit eyes; eye drops of the present invention): negligible irritation; LD50 ([1]; intravenous injection): 150 mg/kg; LD50 ([1]; subcutaneous administration): 2700 mg/kg

Which “Difference in IOP between the control and test eyes” value (intraocular pressure; 0.5% (free base), 1 hr) does the source give for `CC(C)(C)NC[C@H](O)COc1nsnc1N1CCOCC1` [Timolol maleate, timolol maleate] here?
Its value is -0.80 mmHg.

And the “Difference in IOP between the control and test eyes” value (intraocular pressure; 0.5% (free base), 2 hr)?
The value was -0.80 mmHg.

What about the “Difference in IOP between the control and test eyes” value (intraocular pressure; 0.5% (free base), 4 hr) of the same molecule?
Its value is -0.25 mmHg.

What about the “Difference in IOP between the control and test eyes” value (intraocular pressure; 0.5% (free base), 6 hr) of the same molecule?
The value was -0.10 mmHg.

And the IOP reduction (intraocular pressure; 0.5% eye drops, one hour after instillation)?
The IOP reduction was 0.8 mmHg.

And the IOP reduction (intraocular pressure; 0.5% eye drops, two hours after instillation)?
The IOP reduction was 0.8 mmHg.

What about the “degree of the IOP reduction compared with the 0.0001% eye drops of the invention” value (intraocular pressure; 0.5% timolol eye drops) of the same molecule?
The value was “significantly less”.
